{"source": "patent US12428406B2", "about": "(PMV Pharmaceuticals, Inc., priority 2019, dated 2025)", "data": [{"target": "T1, p53 Y220C (Homo sapiens, UniProt P04637, Y220C)", "T1 construct": "The recombinant protein was a truncation mutant containing only amino acids 94-312 of p53; made in house; host or cells: E. coli", "T1 sequence (P04637 94-312, change not shown)": "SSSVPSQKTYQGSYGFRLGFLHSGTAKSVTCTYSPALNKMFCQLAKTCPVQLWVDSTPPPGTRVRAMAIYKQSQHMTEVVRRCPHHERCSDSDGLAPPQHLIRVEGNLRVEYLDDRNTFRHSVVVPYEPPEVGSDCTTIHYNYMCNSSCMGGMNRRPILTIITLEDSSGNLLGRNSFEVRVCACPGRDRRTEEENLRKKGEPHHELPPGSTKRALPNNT", "experiment": "In vitro DNA binding activity assay (HTRF / TR-FRET): stabilization of p53 Y220C and increase of its DNA binding activity", "type": "biochemical", "settings": "recombinant His-tagged p53 Y220C DNA binding domain (aa 94-312), biotin-labeled consensus DNA, incubated at 27° C. or 29° C. for 60 min", "in_short": "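E. coli His-p53 Y220C + biotin consensus DNA; anti-His-APC/SA-Eu TR-FRET. SC150 vs no-compound.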", "values": [{"smiles": "COCC(O)CN1CCC(Nc2cccc3c2cc(C#CCNc2cc(S(C)(=O)=O)ccc2OC)n3CC(F)(F)F)CC1", "note": "(centres unmarked) [Compound 670A, 1-{4-[(2-{3-[(5-methanesulfonyl-2-methoxyphenyl)amino]prop-1-yn-1-yl}-1-(2,2,2-trifluoroethyl)-1H-indol-4-yl)amino]piperidin-1-yl}-3-methoxypropan-2-ol]", "SC150 (concentration of the compound required to increase the DNA binding activity by 50%)": "++++ (++++ = 0.2 μM ≤ SC150 < 1 μM)"}, {"smiles": "COCC(O)CN1CCC(Nc2cccc3c2cc(C#CCNc2ccc(S(C)(=O)=O)cc2)n3CC(F)(F)F)CC1", "note": "(centres unmarked) [Compound 672A, 1-{4-[(2-{3-[(4-methanesulfonylphenyl)amino]prop-1-yn-1-yl}-1-(2,2,2-trifluoroethyl)-1H-indol-4-yl)amino]piperidin-1-yl}-3-methoxypropan-2-ol]", "SC150 (concentration of the compound required to increase the DNA binding activity by 50%)": "+ (+ = 0 μM ≤ SC150 < 0.05 μM)"}, {"smiles": "COc1cc(S(C)(=O)=O)ccc1NCC#Cc1cc2c(NC3CCN(CC(O)COCC(F)(F)F)CC3)cccc2n1CC(F)(F)F", "note": "(centres unmarked) [Compound 673A, 1-{4-[(2-{3-[(4-methanesulfonyl-2-methoxyphenyl)amino]prop-1-yn-1-yl}-1-(2,2,2-trifluoroethyl)-1H-indol-4-yl)amino]piperidin-1-yl}-3-(2,2,2-trifluoroethoxy)propan-2-ol]", "SC150 (concentration of the compound required to increase the DNA binding activity by 50%)": "+ (+ = 0 μM ≤ SC150 < 0.05 μM)"}, {"smiles": "COc1cc(S(C)(=O)=O)ccc1NCC#Cc1cc2c(NC3CC[N+]4(CC3)COCC(O)C4)cccc2n1CC(F)(F)F", "note": "(centres unmarked) [Compound 674A, 4-hydroxy-9-[(2-{3-[(4-methanesulfonyl-2-methoxyphenyl)amino]prop-1-yn-1-yl}-1-(2,2,2-trifluoroethyl)-1H-indol-4-yl)amino]-2-oxa-6λ^5-azaspiro[5.5]undecan-6-ylium]", "SC150 (concentration of the compound required to increase the DNA binding activity by 50%)": "+ (+ = 0 μM ≤ SC150 < 0.05 μM)"}, {"smiles": "COCCCN1CCC(Nc2cccc3c2cc(C#CCNc2ccc(S(C)(=O)=O)cc2OC)n3CC(F)(F)F)CC1", "note": "[Compound 675A, 2-{3-[(4-methanesulfonyl-2-methoxyphenyl)amino]prop-1-yn-1-yl}-N-[1-(3-methoxypropyl)piperidin-4-yl]-1-(2,2,2-trifluoroethyl)-1H-indol-4-amine]", "SC150 (concentration of the compound required to increase the DNA binding activity by 50%)": "+ (+ = 0 μM ≤ SC150 < 0.05 μM)"}, {"smiles": "COCC(O)CN1CCC(Nc2cccc3c2c(C)c(C#CCNc2ccc(S(C)(=O)=O)cc2OC)n3CC(F)(F)F)CC1", "note": "(centres unmarked) [Compound 676A, 1-{4-[(2-{3-[(4-methanesulfonyl-2-methoxyphenyl)amino]prop-1-yn-1-yl}-3-methyl-1-(2,2,2-trifluoroethyl)-1H-indol-4-yl)amino]piperidin-1-yl}-3-methoxypropan-2-ol]", "SC150 (concentration of the compound required to increase the DNA binding activity by 50%)": "+++ (+++ = 0.1 μM ≤ SC150 < 0.2 μM)"}, {"smiles": "COCC(O)CN1CCC(Nc2cccc3c2cc(C#CCNc2cc(F)c(S(C)(=O)=O)cc2OC)n3CC(F)(F)F)CC1", "note": "(centres unmarked) [Compound 677A, 1-{4-[(2-{3-[(5-fluoro-4-methanesulfonyl-2-methoxyphenyl)amino]prop-1-yn-1-yl}-1-(2,2,2-trifluoroethyl)-1H-indol-4-yl)amino]piperidin-1-yl}-3-methoxypropan-2-ol]", "SC150 (concentration of the compound required to increase the DNA binding activity by 50%)": "+ (+ = 0 μM ≤ SC150 < 0.05 μM)"}, {"smiles": "COc1cc(S(C)(=O)=O)ccc1NCC#Cc1cc2c(NC3CCN(C4COC4)CC3)cccc2n1CC(F)(F)F", "note": "[Compound 678A, 2-{3-[(4-methanesulfonyl-2-methoxyphenyl)amino]prop-1-yn-1-yl}-N-[1-(oxetan-3-yl)piperidin-4-yl]-1-(2,2,2-trifluoroethyl)-1H-indol-4-amine]", "SC150 (concentration of the compound required to increase the DNA binding activity by 50%)": "+ (+ = 0 μM ≤ SC150 < 0.05 μM)"}]}]}
